Assay results taken from patent publication US6376175B1, “Methods of discovering chemicals capable of functioning as gene expression modulators” (OSI Pharmaceuticals, Inc., priority 1989, dated 2002).

Key:
Format in all cases: cell-based
human G-CSF promoter = settings: for GCSF fold induction relative to solvent control: Table 2 A) transcriptional activators; for GCSF fold induction relative to solvent control / GCSF fold inhibition relative to solvent control: G21 cells, 6 hours, high-throughput screen; for GCSF fold inhibition relative to solvent control: Table 2 B) transcriptional inhibitors
Description: A human bladder carcinoma cell line (U5637, ATCC number HTB 9) was used for transfection of plasmids containing the human Granulocyte-Colony Stimulating Factor (G-CSF) promoter (see below) and was maintained in RPMI medium supplemented with 10% FCS. For HTP screening, transfected 5637 clones were transferred to a serum free defined medium identical to that used for the NIH/3T3 clones.
The sequences of OL-1, OL-2 and OL-5 recognize the G-CSF promoter region, OL-4 recognizes the first intron/exon junction and OL-3 recognizes sequences within the second exon (32). One of the clones isolated from the leukocyte library using these oligonucleotide probes contains a 3.5 kb SalI-BamHI fragment of G-CSF genomic sequence consisting of 3.3 kb of promoter sequence and two hundred base pairs of the coding region. This fragment was inserted into the vector pGEM-7-Zf (Promega, Madison, Wis.) which had previously been digested with SalI/BamHI, resulting in the vector pJM710 (FIG. 7). pJM710 was then digested with PstI, and the resulting 1.6 kb fragment containing G-CSF upstream sequences and the first 15 bases of the G-CSF leader sequence was inserted into the PstI site of pGEM5-Luci (FIG. 8) to generate pG-Lucl (FIG. 9). This construct was then used for transfection of 5637 human bladder carcinoma cells as described below in section E3. pGEM5-Luci (FIG. 8) had previously been constructed by inserting the […]/SalI fragment from pSVLuci (FIG. 2) containing the luciferase coding sequence and the SV40 late polyadenylation signal into pGEM 5-Zf (Promega, Madison Wis.) digested with XhoI/SalI.
pG-LUC1 (FIG. 9) and pRSVNeo were co-transfected into 5637 human bladder carcinoma cells as described above. Selection of G418 resistant clones was as described above except for using a concentration of 0.1 mg/ml G418. Analysis of cell clones was performed as above except that a known inducer of G-CSF expression (1-5 µg/ml lipopolysaccharide (LPS), E. coli serotype 055:b5, Difco, Detroit, Mich. or Sigma, St. Louis, Mo.) was used in place of dexamethasone.
(§1) Cell plating: Dynatech Microlite 96 well plates were custom pretreated for cell attachment by Dynatech Laboratories, Inc. (Chantilly, Va.). Alternatively, the 96 well plates were treated with 50 µl per well of human fibronectin (hFN, 15 µg/ml in PBS, Collaborative Research, Bedford, Mass.) overnight at 37 C. hFN-treated plates were washed with PBS using an Ultrawash 2 Microplate Washer (Dynatech Labs), to remove excess hFN prior to cell plating. M10, 532, and G21 cells maintained in their respective serum media (with 0.2 mg/ml G418) were washed with PBS, harvested by trypsinization, and counted using a hemocytometer and the Trypan Blue exclusion method according to protocols provided by Sigma, St. Louis, Mo. Chemical Company. Cells were then diluted into serum free defined media (with 0.2 mg/ml G418), and 0.2 ml of cell suspension per well was plated onto Dynatech treated plates (532 and G21) or hFN-treated plates (M10) using a Cetus Pro/Pette (Cetus, Emeryville Calif.). Plates were incubated overnight at 37 C in a humidified 5% CO2 atmosphere.
(§2) Addition of Chemicals to Cells: Chemicals from the Oncogene Science file were dissolved in DMSO at concentrations of 3-30 mg/ml. A liquid handling laboratory work station (RSP 5052, Tecan U.S. Chapel Hill, N.C.) was used to dilute the chemicals (three dilutions; 5 fold, 110 fold, and 726 fold). 10 11 of each dilution were added to each of quadruplicate samples of cells contained in the wells of 96-well Dyantech Microlite Plates. […]

[1] = test system: human growth hormone promoter; settings: for hGH fold induction relative to solvent control: Table 2 A) transcriptional activators; for hGH fold induction relative to solvent control / hGH fold inhibition relative to solvent control: 532 cells, 6 hours, high-throughput screen; for hGH fold inhibition relative to solvent control: Table 2 B) transcriptional inhibitors
Description: A rat pituitary cell line, designated GC, (4, 25) was used for transfection of plasmids containing the human growth hormone promoter (see below) and was maintained in DMEM and Ham's F12 medium (1:1), supplemented with 12.5% FCS. For HTP screening, transfected GC clones were transferred to serum free defined medium consisting of DMEM and Ham's F12 medium (1:1) supplemented with growth factors, hormones and nutrients as described previously (17, 5).
The SalI-XhoI fragment of pSVLuci (FIG. 2) containing the luciferase coding sequences and the SV40 late polyadenylation site was inserted into pUC 8 (Biorad, Richmond, Calif.), which has been linearized by a SmaI/HinCII digestion and ligated to XhoI linkers (New England Biolabs, Beverly, Mass.). The new plasmid thus generated (pUXLuci; FIG. 4) was linearized by XhoI digestion followed by incubation with the Klenow fragment of E. coli DNA polymerase and the four deoxyribonucleotides to fill in the single-stranded ends of the vector. This linear (5.1 KB) form of pUXLuci was then ligated to the filled-in 550 bP HindIII-XbaI fragment of the plasmid phGH:CAT (FIG. 5) (25). Human growth hormone promoter sequences located on the HindIII-XbaI fragment were thus fused to the luciferase coding sequences located on pUXLuci generating the plasmid phGH-Luci (FIG. 6), which was used in transfections of GC cells as described below (Section E2).
phGH-LUCI (FIG. 6) and pRSVNeo, an antibiotic resistance plasmid (14), were co-transfected into GC rat pituitary cells as described above. Selection of G418-resistant cell clones was described above except for using a concentration of 0.2 mg/ml G418. Analysis of the cell clones was performed as above, except that known inducers of hGH expression (10-100 nM rat growth hormone releasing factor (rGRF, Bachem, Torrance, Calif.) and 10 μm forskolin (Sigma, St. Louis, Mo.) were used in place of dexamethasone. One clone, 532, was selected for further use in the high throughput screen.
as §1
Addition of Chemicals to Cells: Chemicals from the Oncogene Science file were dissolved in DMSO at concentrations of 3-30 mg/ml. A liquid handling laboratory work station (RSP 5052, Tecan U.S. Chapel Hill, N.C.) was used to dilute the chemicals (three dilutions; 5 fold, 110 fold, and 726 fold). 10 11 of each dilution were added to each of quadruplicate samples of cells contained in the wells of 96-well Dyantech Microlite Plates. Cell plates were then shaken on a microplate shaker (Dyantech, medium setting, 30 sec.) and incubated for 6 hours at 37 C, 5% CO2.
Bioluminescence Assay: After incubation with OSI-file chemicals, cell plates were washed 3 times with PBS using an Ultrawash 2 Microplate Washer (Dyantech Labs) and 75 µl of Lysis Buffer 2 were added to each well (Lysis Buffer 2 is the same as Lysis buffer 1 exept that the ATP and DTT concentrations were changed to 2.67 mM and 133 mM, respectively). […]

[2] = test system: mouse mammary tumor virus (MMTV) promoter; settings: for MMTV fold induction relative to solvent control: Table 2 A) transcriptional activators; for MMTV fold induction relative to solvent control / MMTV fold inhibition relative to solvent control: M10 cells, 6 hours, high-throughput screen; for effect of steroids on luciferase expression in the MMTV reporter cell line M10: FIG. 43; for MMTV fold inhibition relative to solvent control: Table 2 B) transcriptional inhibitors
Description: NIH/3T3 fibroblast cells (ATCC number CRL 1658) were used for transfection of plasmids containing the mouse mammary tumor virus (MMTV) promoter linked to firefly luciferase coding sequences (see below). Cells were propagated in Dulbecco's modified Eagle's medium (DMEM) obtained from Gibco, Grand Island, N.Y. and supplemented with 10% FCS. For high-throughput (HTP) screening, transfected NIH/3T3 clones were transferred to serum free defined medium consisting of Iscove's modified Eagle's medium (IMEM) and Ham's F12 medium (1:1) supplemented with growth factors, hormones and nutrients as described previously (43).
The firefly luciferase gene was removed from the plant expression plasmid pDO432 (33) (FIG. 1) as a 1.9 kb BamHI fragment and cloned into the BamHI site of pSVL (Pharmacia, Piscataway, N.J.), a mammalian expression vector containing the SV40 promoter. The resulting plasmid (pSVLuci; FIG. 2) was digested with XhoI and SalI to produce a 2.4 kb fragment containing the luciferase coding sequences and the SV40 late polyadenylation site. This fragment was inserted into the XhoI site of pMSG (Pharmacia, Piscataway, N.J.), a eukaryotic expression vector containing the MMTV promoter. The resulting MMTV promoter-luciferase fusion plasmid (pMLuci; FIG. 3) was used to transfect NIH/3T3 cells as described below (section E1). Similar constructs can be made using luciferase vectors from Clontech (Palo Alto, Calif.).
pMluci (FIG. 3) and pSV2Neo, an antibiotic resistance plasmid (34), were co-transfected into NIH/3T3 mouse fibroblast cells using the calcium phosphate precipitation method (15) with a commercially available kit (Pharmacia, Piscataway N.J.). Two days later, cells were transferred to media containing 0.4 mg/ml G418 and were grown for an additional 10-14 days. G418-resistant clones were isolated by standard methods. Once sufficient cell numbers were obtained, clones were analyzed based on several criteria: constitutive luciferase production, induction of luciferase expression by dexamethasone (1 μm, Sigma, St. Louis, Mo.), satisfactory attachment to microtiter plates used in the high-throughput screen (see Section G) and acceptable standard deviation in multiple luciferase expression assays (see below for assay protocol). This analysis was carried out using the luciferase assay conditions described in sections F and G. Of the clones which satisfied the above criteria for the high throuphput screen, one clone, M10, was selected for use.
as §1, §2

Compound	hGH fold induction relative to solvent control [1]	MMTV fold induction relative to solvent control [2]	GCSF fold induction relative to solvent control (human G-CSF promoter)	other results
lipopolysaccharide [reference compound]				stimulation of clone G21 by known inducer (human G-CSF promoter; 5 µg/ml lipopolysaccharide): 5.7 fold
Nc1nc(=O)n(C2CC(O)C(CO)O2)cc1Br (stereo not shown) [Chemical 542]	1.08 fold	1.26 fold	6.28 fold	
C[C@]12CCC(=O)C=C1CC[C@@H]1[C@@H]2[C@@H](O)C[C@]2(C=O)[C@@H](C(=O)CO)CC[C@@H]12 [aldosterone, reference compound]				effect of steroids on luciferase expression in the MMTV reporter cell line M10 [2]: stimulates clone M10
C[C@@H]1C[C@H]2[C@@H]3CCC4=CC(=O)C=C[C@]4(C)[C@@]3(F)[C@@H](O)C[C@]2(C)[C@@]1(O)C(=O)CO [dexamethasone, reference compound]				stimulation of clone M10 by known inducer ([2]; 1 μm dexamethasone): 11.6 fold
O=C(OC(C(=O)O)C(OC(=O)c1ccccc1)C(=O)O)c1ccccc1 (stereo not shown) [Chemical 578]				hGH fold inhibition relative to solvent control [1]: 4.00 fold; MMTV fold inhibition relative to solvent control [2]: 0.91 fold; GCSF fold inhibition relative to solvent control (human G-CSF promoter): 0.65 fold
CC1(C(=O)OCC(F)(F)C(F)(F)C(F)(F)C(F)(F)C(F)(F)C(F)F)CCC(C(=O)OCC(F)(F)C(F)(F)C(F)(F)C(F)(F)C(F)(F)C(F)F)C1(C)C (stereo not shown) [Chemical 1592]	0.74 fold	1.34 fold	3.20 fold	
rat growth hormone releasing factor: rat growth hormone releasing factor (rGRF, Bachem), known inducer of hGH expression (HADAIFTSSYRRILGQLYARKLLHEIMNRQQGERNQEQRSRFN; Somatoliberin; UniProt P09916 31-73, looked up) [reference compound]				stimulation of clone 532 by known inducer ([1]; 100 nM rat growth hormone releasing factor): 2.2 fold
CC(CCl)CBr (single isomer, unassigned) [Chemical 2096]	0.61 fold	0.89 fold	3.27 fold	
CC(=O)[C@H]1CC[C@H]2[C@@H]3CCC4=CC(=O)CC[C@]4(C)[C@H]3CC[C@]12C [progesterone, reference compound]				effect of steroids on luciferase expression in the MMTV reporter cell line M10 [2]: did not
C1CCNCC1 [Chemical 759]				GCSF fold inhibition relative to solvent control (human G-CSF promoter): 0.64 fold
CC(=O)[O-].Nc1ccc2nc3c(cc(N)c4ccccc43)[o+]c2c1 [Chemical 1776]	0.15 fold	1.36 fold	3.50 fold	
Cc1cc(=O)oc2c(CN(CC(=O)O)CC(=O)O)c(O)ccc12 [Chemical 1712]				GCSF fold inhibition relative to solvent control (human G-CSF promoter): 0.64 fold
CC1(C)OC2CC3C4CCC5=CC(=O)C=CC5(C)C4(F)C(O)CC3(C)C2(C(=O)CO)O1 (stereo not shown) [Chemical 848]	1.28 fold	2.43 fold	0.75 fold	
Cc1cc(-c2ccc(S(=O)(=O)[O-])cc2)c2ccc3c(-c4ccc(S(=O)(=O)[O-])cc4)cc(C)nc3c2n1.O.[Na+].[Na+] [Chemical 189]	1.47 fold	2.80 fold	1.06 fold	
CC1(C)C2CCC1(C)C(O)C2 (stereo not shown) [Chemical 1635]				hGH fold inhibition relative to solvent control [1]: 9.09 fold; MMTV fold inhibition relative to solvent control [2]: 0.99 fold; GCSF fold inhibition relative to solvent control (human G-CSF promoter): 0.71 fold
Nc1ccc2nc3ccc(N)cc3[s+]c2c1 [Chemical 836]	0.23 fold	0.58 fold	3.20 fold	
O=c1[nH]c(=O)n(C2CC(O)C(CO)O2)cc1Br (stereo not shown) [Chemical 543]	0.72 fold	0.98 fold	7.17 fold	
